Assay results reported in ChEMBL document CHEMBL4610040, “Addressing hERG activity while maintaining favorable potency, selectivity and pharmacokinetic properties of PPARδ modulators” (Bioorg Med Chem Lett, 2020).
Values belong to the molecule of their own block, whether it stands above or below them.

How the values were obtained:
[1] = target: Voltage-gated inwardly rectifying potassium channel KCNH2 (Homo sapiens, UniProt Q12809); assay: Inhibition of human ERG expressed in HEK293 cells by semi-automatic patch clamp assay; assay type: cell-based
Chain of Voltage-gated inwardly rectifying potassium channel KCNH2 (Q12809 whole entry): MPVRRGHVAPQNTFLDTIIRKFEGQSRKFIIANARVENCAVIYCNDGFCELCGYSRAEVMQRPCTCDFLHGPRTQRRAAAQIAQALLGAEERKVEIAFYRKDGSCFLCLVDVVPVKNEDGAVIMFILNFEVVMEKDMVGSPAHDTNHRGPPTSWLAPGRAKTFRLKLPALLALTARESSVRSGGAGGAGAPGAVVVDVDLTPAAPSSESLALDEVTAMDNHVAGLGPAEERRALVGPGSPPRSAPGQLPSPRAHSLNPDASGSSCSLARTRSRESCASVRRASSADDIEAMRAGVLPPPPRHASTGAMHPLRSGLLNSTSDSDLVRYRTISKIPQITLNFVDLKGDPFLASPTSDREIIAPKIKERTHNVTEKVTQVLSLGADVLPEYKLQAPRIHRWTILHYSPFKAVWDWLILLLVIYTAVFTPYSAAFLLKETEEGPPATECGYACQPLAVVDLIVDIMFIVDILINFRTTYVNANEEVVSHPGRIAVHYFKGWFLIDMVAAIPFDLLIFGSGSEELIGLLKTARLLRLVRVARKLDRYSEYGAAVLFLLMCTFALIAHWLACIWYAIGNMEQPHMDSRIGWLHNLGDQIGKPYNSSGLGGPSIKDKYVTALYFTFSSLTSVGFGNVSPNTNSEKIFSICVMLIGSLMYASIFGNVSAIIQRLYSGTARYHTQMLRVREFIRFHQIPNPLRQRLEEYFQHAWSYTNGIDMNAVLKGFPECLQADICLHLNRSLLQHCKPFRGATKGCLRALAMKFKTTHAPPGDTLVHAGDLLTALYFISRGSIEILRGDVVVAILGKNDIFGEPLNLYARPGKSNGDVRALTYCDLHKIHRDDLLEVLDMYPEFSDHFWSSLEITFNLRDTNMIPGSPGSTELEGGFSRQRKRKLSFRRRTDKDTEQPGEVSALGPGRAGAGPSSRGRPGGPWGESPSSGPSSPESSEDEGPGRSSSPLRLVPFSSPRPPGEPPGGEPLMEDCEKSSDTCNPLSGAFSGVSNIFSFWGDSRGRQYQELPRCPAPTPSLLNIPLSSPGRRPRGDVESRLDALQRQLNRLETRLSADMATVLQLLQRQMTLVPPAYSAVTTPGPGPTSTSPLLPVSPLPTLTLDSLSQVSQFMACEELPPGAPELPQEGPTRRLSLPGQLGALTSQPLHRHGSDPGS

hERG (KCNH2) = hERG (KCNH2) (Homo sapiens, UniProt Q12809); assay: Inhibition of human ERG expressed in HEK293 cells at 10 uM by semi-automatic patch clamp assay relative to control; assay type: cell-based; conditions: HEK293 cells that express hERG
Chain of hERG (KCNH2) (Q12809 whole entry, the tested form may be a part): as the sequence (Q12809 whole entry) above

[2] = target: T1, Peroxisome proliferator-activated receptor alpha (Homo sapiens, UniProt Q07869); assay: Transactivation of GAL4-fused human PPARalpha expressed in African green monkey CV1 cells by luciferase reporter gene assay; assay type: cell-based, CV-1
T1 sequence (Q07869 whole entry): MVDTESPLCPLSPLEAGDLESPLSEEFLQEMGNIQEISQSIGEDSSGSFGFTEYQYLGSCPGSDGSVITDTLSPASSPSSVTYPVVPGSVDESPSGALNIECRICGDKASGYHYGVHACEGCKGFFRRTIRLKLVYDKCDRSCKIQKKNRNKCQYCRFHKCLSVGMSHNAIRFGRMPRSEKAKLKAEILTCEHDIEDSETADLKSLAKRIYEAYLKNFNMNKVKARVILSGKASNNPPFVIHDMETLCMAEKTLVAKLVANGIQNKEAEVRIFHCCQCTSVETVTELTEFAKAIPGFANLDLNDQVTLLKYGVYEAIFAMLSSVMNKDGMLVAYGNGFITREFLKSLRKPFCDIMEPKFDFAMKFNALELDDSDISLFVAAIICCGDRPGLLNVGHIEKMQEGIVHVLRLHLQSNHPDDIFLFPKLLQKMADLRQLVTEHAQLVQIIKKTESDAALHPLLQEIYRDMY

[3] = target: T2, Peroxisome proliferator-activated receptor gamma (Homo sapiens, UniProt P37231); assay: Transactivation of GAL4-fused human PPARgamma expressed in African green monkey CV1 cells by luciferase reporter gene assay; assay type: cell-based, CV-1
T2 sequence (P37231 whole entry): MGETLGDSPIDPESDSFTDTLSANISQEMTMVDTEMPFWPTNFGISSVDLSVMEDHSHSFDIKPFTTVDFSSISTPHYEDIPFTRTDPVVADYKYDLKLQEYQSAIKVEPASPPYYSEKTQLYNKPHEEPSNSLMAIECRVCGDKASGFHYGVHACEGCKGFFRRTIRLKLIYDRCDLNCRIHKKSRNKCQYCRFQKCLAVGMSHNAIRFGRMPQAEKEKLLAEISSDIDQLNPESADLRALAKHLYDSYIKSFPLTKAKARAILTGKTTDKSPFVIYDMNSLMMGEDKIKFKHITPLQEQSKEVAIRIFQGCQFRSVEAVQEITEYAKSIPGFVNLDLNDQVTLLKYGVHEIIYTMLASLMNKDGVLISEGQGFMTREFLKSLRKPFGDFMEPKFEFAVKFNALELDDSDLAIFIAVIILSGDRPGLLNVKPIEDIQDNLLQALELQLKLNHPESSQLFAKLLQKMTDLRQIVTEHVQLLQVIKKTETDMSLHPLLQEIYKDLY

[4] = AUC (0 to infinity) in CD-1 mouse at 1 mg/kg, iv or 3 mg/kg, po; assay type: ADME, organism-based; conditions: in vivo
[5] = Elimination half life in CD-1 mouse at 1 mg/kg, iv or 3 mg/kg, po; assay type: ADME, organism-based; conditions: in vivo, read-out: beta t1/2 (converted)
[6] = Oral bioavailability in CD-1 mouse at 3 mg/kg; assay type: ADME, organism-based; conditions: in vivo

SMILES: Cc1cnc(-c2ccc(-c3ccco3)cc2)n1Cc1ccccc1OCCCCCC(=O)O
IC50 [1]: 5.5 µM

EC50 [2]: > 100 µM | EC50 [3]: > 100 µM | AUC(0-inf) [4]: 14.7 µg·h/mL
SMILES: C[C@H](CCCOc1ccccc1Cn1c(C(F)(F)F)cnc1-c1ccc(C#N)cc1)CC(=O)O
inhibition at 10 µM (hERG (KCNH2)): 4%

EC50 [2]: > 100 µM | EC50 [3]: > 100 µM | AUC(0-inf) [4]: 6.96 µg·h/mL | half-life [5]: 5.8 h | bioavailability [6]: 70%
SMILES: C[C@H](CCCOc1ccccc1Cn1c(C(F)(F)F)cnc1-c1ccc(C(F)(F)F)cc1)CC(=O)O
inhibition at 10 µM (hERG (KCNH2)): 5.7%

EC50 [2]: > 100 µM | EC50 [3]: > 100 µM | AUC(0-inf) [4]: 3.88 µg·h/mL | half-life [5]: 3.5 h | bioavailability [6]: 100%
SMILES: C[C@H](CCCOc1ccccc1Cn1c(Cl)cnc1-c1ccc(C(F)(F)F)cc1)CC(=O)O

SMILES: Cc1cnc(-c2ccc(C#N)cc2)n1Cc1ccccc1OCCC[C@@H](C)CC(=O)O
inhibition at 10 µM (hERG (KCNH2)): 15%

SMILES: Cc1nc(-c2cc(F)c(-c3ccco3)c(F)c2)c(Cc2ccccc2OCCC[C@@H](C)CC(=O)O)s1
inhibition at 10 µM (hERG (KCNH2)): 4%

SMILES: C/C(=C\COc1ccccc1Cc1sc(C)nc1-c1ccc2oc(C)cc2c1)CCC(=O)O
inhibition at 10 µM (hERG (KCNH2)): 14%

SMILES: Cc1cnc(-c2ccc(OC(F)(F)F)cc2)n1Cc1ccccc1OCCC[C@@H](C)CC(=O)O
IC50 [1]: 10 µM

SMILES: C/C(=C\COc1ccccc1Cc1c(C)cnn1-c1ccc(C(F)(F)F)cc1)CCC(=O)O
inhibition at 10 µM (hERG (KCNH2)): 4%

SMILES: Cc1cc2cc(-c3ncc(C)n3Cc3ccccc3OCCCCCC(=O)O)ccc2o1
inhibition at 10 µM (hERG (KCNH2)): 51%

SMILES: CN(Cc1ccccc1OCCCCCC(=O)O)C(=O)c1ccc(-c2ccco2)cc1
inhibition at 10 µM (hERG (KCNH2)): < 15%
